What all share (assay): growth of human tumour cells (NCI), 48 h
Assay [1] concerns CCRF-CEM.
Assay [2] deals with EKVX.
The subject of assay [3] is HCC 2998.
The test system of assay [4] is HCT-116.
Assay [5] concerns IGROV-1.
In assay [6] the test system is K562.
Assay [7] deals with KM-20L2.
The subject of assay [8] is KM12.
Assay [9] deals with LOX IMVI.
In assay [10] the test system is Malme-3M.
Assay [11] relates to OVCAR-5.
Assay [12] deals with SF-295.
Assay [13] deals with SK-MEL-5.
The subject of assay [14] is TK-10.
For assay [15], the system named is UACC-62.
The test system of assay [16] is SK-MEL-2.
In assay [17] the test system is SNB-78.
Assay [18] deals with DMS-273.
Assay [19] has as its system Hs-578T.
The subject of assay [20] is MDA-MB-435.

The values that follow come from ChEMBL document CHEMBL1201862, “PubChem BioAssay data set” (2004).

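Grown in 96-well plates, cells were treated for 48 hours with each compound at five concentrations. Insufficient inhibition: endpoint recorded as highest concentration tested. GI50 is the concentration that inhibits growth by half.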 Calls of active or inactive are those of the source. Cut-off read from the data, not from the text of the source: active = GI50 up to about 1.1 µM and inactive = higher.

With `COC(=O)/N=C(\NC(=O)OC)Nc1ccc(Oc2ccccc2)cc1NC=O`, the GI50 in [1] is 0.692 µM (active); in [2], 89.5 µM (inactive); in assay [3], 0.968 µM (active); in assay [4], 0.49 µM (active); in assay [5], 1.62 µM (inactive); in assay [6], 0.265 µM (active). For the same molecule, the GI50 was 0.242 µM (active) in assay [7]; 0.466 µM (active) in assay [8]; 1.97 µM (inactive) in assay [9]; 0.579 µM (active) in [10]; > 100 µM (inactive) in assay [11]; 0.439 µM (active) in assay [12]. The values for the GI50 in [13], in assay [14] and in [15] were 0.341 µM (active), 9.57 µM (inactive) and 0.573 µM (active), respectively.
As for `CCOC(=O)C1=C(NC(C)(C)C)OCC1=O`, the GI50 in [3], in assay [4], in assay [5], in assay [6], in [7] and in assay [8] was > 100 µM (inactive) throughout. Moreover, the GI50 in assay [9], in assay [10], in assay [11], in [12], in assay [16] and in assay [17] was > 100 µM (inactive) throughout. The GI50 in assay [14] and in assay [15] was > 100 µM (inactive) each time.
Take `CC(C)c1cccc(C(C)C)c1NC(=O)/C(Cc1nc2ccc(Cl)cc2nc1O)=N\NC(=O)C[N+](C)(C)C`: the GI50 is > 100 µM (inactive) in assay [1]; 4.22 µM (inactive) in [2]; > 100 µM (inactive) in assay [3]; > 100 µM (inactive) in assay [4]; > 100 µM (inactive) in assay [5]; > 100 µM (inactive) in assay [6]. For the same molecule, the GI50 in [7], in assay [8], in assay [10], in assay [11], in assay [12] and in assay [16] was > 100 µM (inactive) in each case. In addition, the GI50 in [13], in [14] and in assay [15] was > 100 µM (inactive) each time.
In the case of `CC(C)(C)C1=CC(=NNC(=S)NCc2ccccc2)C=C(C(C)(C)C)C1=O`, the GI50 was 52.1 µM (inactive) in assay [1]; > 100 µM (inactive) in assay [18]; 89.3 µM (inactive) in [2]; 53.7 µM (inactive) in assay [3]; 60.5 µM (inactive) in [4]; > 100 µM (inactive) in assay [5]. For the same molecule, the GI50 in assay [6] is 83 µM (inactive); in assay [7], > 100 µM (inactive); in assay [9], 73.8 µM (inactive); in assay [10], > 100 µM (inactive); in [12] it was 86.3 µM (inactive); in assay [16], > 100 µM (inactive). The results for the GI50 in [13], in [14] and in assay [15] were 37.6 µM (inactive), > 100 µM (inactive) and > 100 µM (inactive), respectively.
For the molecule `COc1ccc(OC)c2c(C(=O)O)c(C(C)c3ccccc3)ccc12` (centres undefined), the GI50 in assay [1], in assay [18], in assay [2], in assay [3], in assay [4] and in [5] was > 100 µM (inactive) throughout. The GI50 in [6], in [7], in assay [8], in assay [9], in [10] and in assay [11] was > 100 µM (inactive) throughout. Further, the GI50 in assay [12], in [16], in assay [13], in assay [14] and in assay [15] was > 100 µM (inactive) in each case.
For the molecule `COc1cc2c(c(OC)c1OC)-c1ccc(SC)c(=O)cc1[C@@H](NC(=O)c1ccc(Cl)cc1)CC2`, the GI50 in assay [1], in assay [18], in assay [3], in assay [4], in assay [5] and in [6] was < 0.01 µM (active) throughout. The GI50 in [7], in assay [9], in [10], in [12], in assay [16] and in [13] was < 0.01 µM (active) in each case. The GI50 is 2.36 µM (inactive) in assay [14] and < 0.01 µM (active) in [15].
On to `COc1cc(Br)c(/C=N\c2cccc3ccc(OS(=O)(=O)c4cccc([N+](=O)[O-])c4)cc23)cc1OC`, for which the GI50 was 12.2 µM (inactive) in [1]; 77.3 µM (inactive) in assay [2]; > 100 µM (inactive) in assay [3]; 30.5 µM (inactive) in [4]; 58.2 µM (inactive) in [5]; 21.1 µM (inactive) in [6]. The GI50 was 30.7 µM (inactive) in [8]; 29.8 µM (inactive) in assay [9]; 36 µM (inactive) in [10]; > 100 µM (inactive) in assay [11]; 20.4 µM (inactive) in [12]; 39.4 µM (inactive) in assay [16]. Also, the GI50 was 27.4 µM (inactive) in assay [13], 12 µM (inactive) in [17] and 23.1 µM (inactive) in assay [15].
`CO[C@]1(c2ccc([N+](=O)[O-])cc2)Oc2ccccc2C(=O)[C@@]1(Nc1ccc(C=O)cc1)OC`: the GI50 in assay [1], in assay [2], in assay [3], in [4], in [19] and in assay [5] was > 10 µM (inactive) in each case. In addition, the GI50 in [6], in [8], in assay [9], in [20], in assay [10] and in assay [11] was > 10 µM (inactive) each time. The GI50 in [12], in [16], in assay [13], in assay [14] and in [15] was > 10 µM (inactive) each time.
Regarding `O=C(CCCl)NN=C1NCCN1`, the GI50 in assay [1], in [2], in assay [3], in assay [4], in assay [19] and in [5] was > 100 µM (inactive) throughout. The GI50 in [6], in assay [8], in assay [9], in assay [20], in assay [10] and in assay [11] was > 100 µM (inactive) in each case. In addition, the GI50 in [12], in assay [16], in assay [13], in assay [14] and in assay [15] was > 100 µM (inactive) each time.
